Key:
potassium arsenate = compound: O=[As]([O-])(O)O.[K+] [potassium arsenate]; assay: thermal stability z-score vs DMSO; higher = more thermally stabilized by treatment; conditions: HeLa; arsenate concentration 1 mM
Procedure: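 Cellular thermal proteome profiling in HeLa cells treated with 1 mM arsenate for 1 h (DMSO pretreatment), heated to ten temperatures (37-66.3 °C). Soluble protein was quantified by TMT mass spectrometry relative to DMSO controls; the thermal stability score was transformed to a z-score; mean of n = 3 experiments.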

lipoamide = compound: NC(=O)CCCCC1CCSS1 [lipoamide]; assay: as above; conditions: HeLa, lipoamide concentration 100 µM
Procedure: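 Cellular thermal proteome profiling in HeLa cells. Cells were treated with 100 µM lipoamide for 1 h, with or without 1 mM arsenate for a further 1 h, then heated to ten temperatures (37-66.3 °C), and soluble protein was quantified by TMT mass spectrometry relative to 0.1% DMSO controls. The thermal stability score (sum of log2 fold changes minus the abundance score) was transformed to a z-score; mean of n = 3 experiments.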

[1] = arsenate co-treatment: 1 mM arsenate 1 h
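Note: each temperature applied for 3 min, abundance score taken as mean log2 fold change at the two lowest temperatures, z-score obtained by mean subtraction and division by SD.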

Chain of UniProt Q13616 (Q13616 whole entry): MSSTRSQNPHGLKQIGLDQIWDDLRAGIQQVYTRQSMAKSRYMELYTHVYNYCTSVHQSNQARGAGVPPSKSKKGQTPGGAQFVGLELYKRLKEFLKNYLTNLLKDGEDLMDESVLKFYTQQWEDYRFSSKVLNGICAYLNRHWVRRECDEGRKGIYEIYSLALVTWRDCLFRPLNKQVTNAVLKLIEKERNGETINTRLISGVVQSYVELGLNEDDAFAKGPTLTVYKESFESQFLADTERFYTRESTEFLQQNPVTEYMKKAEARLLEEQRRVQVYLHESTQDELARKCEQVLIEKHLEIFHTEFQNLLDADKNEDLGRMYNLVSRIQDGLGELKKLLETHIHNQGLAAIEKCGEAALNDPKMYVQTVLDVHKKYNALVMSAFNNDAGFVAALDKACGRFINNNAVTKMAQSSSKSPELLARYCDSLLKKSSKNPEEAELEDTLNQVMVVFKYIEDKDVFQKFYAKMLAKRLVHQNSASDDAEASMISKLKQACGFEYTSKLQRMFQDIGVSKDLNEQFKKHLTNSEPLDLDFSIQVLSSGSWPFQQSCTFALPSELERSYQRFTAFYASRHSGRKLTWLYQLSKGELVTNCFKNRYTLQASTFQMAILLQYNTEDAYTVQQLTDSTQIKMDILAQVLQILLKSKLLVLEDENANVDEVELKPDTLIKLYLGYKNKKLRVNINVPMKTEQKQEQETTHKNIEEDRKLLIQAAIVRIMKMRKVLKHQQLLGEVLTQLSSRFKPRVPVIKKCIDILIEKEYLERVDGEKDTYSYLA
Chain of UniProt Q9HCG8 (Q9HCG8 whole entry): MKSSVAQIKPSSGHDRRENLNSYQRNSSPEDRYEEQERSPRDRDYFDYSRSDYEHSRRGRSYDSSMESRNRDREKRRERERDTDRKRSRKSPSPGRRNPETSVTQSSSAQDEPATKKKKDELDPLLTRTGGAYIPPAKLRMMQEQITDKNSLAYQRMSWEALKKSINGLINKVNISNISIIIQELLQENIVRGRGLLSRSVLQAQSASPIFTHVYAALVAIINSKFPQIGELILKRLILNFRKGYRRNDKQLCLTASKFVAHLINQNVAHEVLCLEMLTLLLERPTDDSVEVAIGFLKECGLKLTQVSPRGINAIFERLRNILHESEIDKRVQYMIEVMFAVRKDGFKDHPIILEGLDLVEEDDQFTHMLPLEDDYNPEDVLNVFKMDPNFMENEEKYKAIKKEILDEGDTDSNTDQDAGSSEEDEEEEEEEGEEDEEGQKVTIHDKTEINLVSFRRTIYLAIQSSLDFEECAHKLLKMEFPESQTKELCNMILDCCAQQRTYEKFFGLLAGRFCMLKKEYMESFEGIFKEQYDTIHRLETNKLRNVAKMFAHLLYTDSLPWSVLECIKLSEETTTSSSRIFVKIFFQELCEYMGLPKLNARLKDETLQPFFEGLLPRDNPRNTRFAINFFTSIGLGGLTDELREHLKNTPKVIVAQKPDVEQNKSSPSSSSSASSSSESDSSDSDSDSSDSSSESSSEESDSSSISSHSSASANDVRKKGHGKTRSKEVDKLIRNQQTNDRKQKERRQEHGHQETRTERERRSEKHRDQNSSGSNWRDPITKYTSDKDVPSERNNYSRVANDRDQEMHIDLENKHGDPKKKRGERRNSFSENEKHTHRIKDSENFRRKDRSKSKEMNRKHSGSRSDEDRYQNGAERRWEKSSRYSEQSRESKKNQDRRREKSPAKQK
Chain of UniProt Q9NTM9 (Q9NTM9 whole entry): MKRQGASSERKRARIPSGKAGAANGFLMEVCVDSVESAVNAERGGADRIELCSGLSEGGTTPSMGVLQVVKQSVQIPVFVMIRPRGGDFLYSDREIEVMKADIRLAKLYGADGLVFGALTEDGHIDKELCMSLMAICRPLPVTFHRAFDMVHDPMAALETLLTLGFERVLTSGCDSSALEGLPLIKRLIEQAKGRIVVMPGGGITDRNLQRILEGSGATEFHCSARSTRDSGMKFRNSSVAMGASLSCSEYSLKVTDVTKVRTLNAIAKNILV
Chain of UniProt Q14247 (Q14247 whole entry): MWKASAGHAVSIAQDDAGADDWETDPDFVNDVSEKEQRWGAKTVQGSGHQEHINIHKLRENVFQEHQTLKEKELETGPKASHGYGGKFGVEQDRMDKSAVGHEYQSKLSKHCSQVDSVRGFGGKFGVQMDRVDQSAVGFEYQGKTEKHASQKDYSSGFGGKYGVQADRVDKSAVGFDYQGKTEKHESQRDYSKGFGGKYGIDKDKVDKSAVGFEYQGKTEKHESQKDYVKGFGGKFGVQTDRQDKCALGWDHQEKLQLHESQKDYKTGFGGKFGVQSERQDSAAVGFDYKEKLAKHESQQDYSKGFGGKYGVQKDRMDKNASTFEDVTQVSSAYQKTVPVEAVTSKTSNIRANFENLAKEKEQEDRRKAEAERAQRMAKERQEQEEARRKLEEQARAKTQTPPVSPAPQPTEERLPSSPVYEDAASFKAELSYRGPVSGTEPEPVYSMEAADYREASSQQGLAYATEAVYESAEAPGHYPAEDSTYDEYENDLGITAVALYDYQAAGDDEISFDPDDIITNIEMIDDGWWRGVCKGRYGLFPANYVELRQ
Chain of UniProt Q69YN2 (Q69YN2 whole entry): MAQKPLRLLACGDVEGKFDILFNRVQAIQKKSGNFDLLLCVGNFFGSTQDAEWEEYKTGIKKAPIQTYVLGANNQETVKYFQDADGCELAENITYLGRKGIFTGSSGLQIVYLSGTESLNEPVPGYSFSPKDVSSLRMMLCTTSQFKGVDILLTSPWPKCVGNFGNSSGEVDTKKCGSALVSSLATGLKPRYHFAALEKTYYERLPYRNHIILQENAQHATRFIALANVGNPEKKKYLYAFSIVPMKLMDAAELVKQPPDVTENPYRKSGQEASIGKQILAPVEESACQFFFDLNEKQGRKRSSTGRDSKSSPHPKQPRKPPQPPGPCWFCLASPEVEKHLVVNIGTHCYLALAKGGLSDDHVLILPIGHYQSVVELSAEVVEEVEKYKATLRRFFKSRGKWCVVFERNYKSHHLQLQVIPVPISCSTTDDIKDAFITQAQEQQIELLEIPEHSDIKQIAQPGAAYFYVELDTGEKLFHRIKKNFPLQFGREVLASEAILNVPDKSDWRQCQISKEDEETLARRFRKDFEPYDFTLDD
Chain of UniProt O60888 (O60888 whole entry): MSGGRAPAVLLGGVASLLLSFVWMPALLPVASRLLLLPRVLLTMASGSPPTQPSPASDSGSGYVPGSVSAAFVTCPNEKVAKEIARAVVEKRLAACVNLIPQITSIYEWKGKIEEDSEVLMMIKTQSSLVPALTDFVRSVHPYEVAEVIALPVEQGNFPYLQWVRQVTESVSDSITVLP
Chain of UniProt Q9UHQ9 (Q9UHQ9 whole entry): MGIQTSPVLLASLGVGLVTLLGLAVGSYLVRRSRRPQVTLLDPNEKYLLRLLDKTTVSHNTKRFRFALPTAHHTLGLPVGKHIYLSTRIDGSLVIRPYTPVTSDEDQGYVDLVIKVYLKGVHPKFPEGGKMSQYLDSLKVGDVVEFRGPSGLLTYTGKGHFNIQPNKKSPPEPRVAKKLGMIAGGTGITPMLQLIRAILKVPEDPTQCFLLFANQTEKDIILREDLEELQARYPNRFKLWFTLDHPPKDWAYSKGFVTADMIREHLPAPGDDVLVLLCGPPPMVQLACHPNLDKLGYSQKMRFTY
Chain of UniProt Q9H467 (Q9H467 whole entry): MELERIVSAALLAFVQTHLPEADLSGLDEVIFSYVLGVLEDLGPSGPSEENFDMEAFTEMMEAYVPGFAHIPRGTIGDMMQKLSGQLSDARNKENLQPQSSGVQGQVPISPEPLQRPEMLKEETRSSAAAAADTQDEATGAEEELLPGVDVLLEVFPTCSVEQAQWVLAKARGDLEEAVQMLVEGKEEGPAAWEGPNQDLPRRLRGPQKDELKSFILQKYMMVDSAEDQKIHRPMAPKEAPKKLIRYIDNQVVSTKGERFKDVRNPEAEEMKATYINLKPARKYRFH
Chain of UniProt P17812 (P17812 whole entry): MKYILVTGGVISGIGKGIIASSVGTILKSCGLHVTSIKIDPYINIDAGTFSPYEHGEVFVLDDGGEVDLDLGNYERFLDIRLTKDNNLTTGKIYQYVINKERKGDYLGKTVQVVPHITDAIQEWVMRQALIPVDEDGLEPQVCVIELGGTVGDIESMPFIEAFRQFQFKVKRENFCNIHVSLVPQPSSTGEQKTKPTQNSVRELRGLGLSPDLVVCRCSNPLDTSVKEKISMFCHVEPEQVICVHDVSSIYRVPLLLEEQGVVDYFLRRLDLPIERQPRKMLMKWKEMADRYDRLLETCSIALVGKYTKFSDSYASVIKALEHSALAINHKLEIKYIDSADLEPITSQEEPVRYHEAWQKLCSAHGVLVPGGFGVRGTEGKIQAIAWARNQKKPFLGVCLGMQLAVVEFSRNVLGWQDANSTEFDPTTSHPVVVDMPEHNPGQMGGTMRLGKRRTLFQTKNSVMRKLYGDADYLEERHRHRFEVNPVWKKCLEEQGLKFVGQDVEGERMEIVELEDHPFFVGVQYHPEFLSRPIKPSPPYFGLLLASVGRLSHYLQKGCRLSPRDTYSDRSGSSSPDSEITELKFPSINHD
Chain of UniProt Q8NBI2 (Q8NBI2 whole entry): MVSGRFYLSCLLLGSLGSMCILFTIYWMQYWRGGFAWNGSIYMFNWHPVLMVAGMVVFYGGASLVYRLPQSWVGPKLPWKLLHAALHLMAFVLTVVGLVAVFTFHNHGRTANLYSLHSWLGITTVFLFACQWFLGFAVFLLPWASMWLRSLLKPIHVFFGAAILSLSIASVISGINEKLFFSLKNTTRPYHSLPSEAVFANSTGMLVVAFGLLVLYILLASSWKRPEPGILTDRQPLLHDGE

Target | thermal stability z-score (potassium arsenate) | thermal stability z-score (lipoamide; [1]) | thermal stability z-score (lipoamide; arsenate co-treatment: none)
CTCF (UniProt P49711) | -1.14 | 0.761 | -0.0166
CTDP1 (UniProt Q9Y5B0) | -0.903 | -0.373 | -0.652
CTH (UniProt P32929) | 0.596 | 0.473 | 0.559
CTIF (UniProt O43310) | 0.233 | -0.164 | 0.404
CTNNA1 (UniProt P35221) | -0.4 | 0.319 | 0.2
CTNNAL1 (UniProt Q9UBT7) | 0.675 | 0.0967 | 0.168
CTNNB1 (UniProt P35222) | 0.308 | 0.545 | 0.798
CTNNBL1 (UniProt Q8WYA6) | -0.00699 | -0.0207 | 0.00313
CTNND1 (UniProt O60716) | -0.105 | 0.292 | 0.231
CTPS1 (UniProt P17812) | -0.228 | -0.159 | -0.286
CTPS2 (UniProt Q9NRF8) | 0.109 | 0.218 | -0.0335
CTR9 (UniProt Q6PD62) | 0.243 | 0.156 | 0.203
CTSA (UniProt P10619) | -0.0364 | -0.264 | -0.283
CTSB (UniProt P07858) | -0.676 | -0.289 | -0.315
CTSC (UniProt P53634) | -0.148 | -0.492 | -0.279
CTSD (UniProt P07339) | -0.598 | 0.0179 | -0.0567
CTSL (UniProt P07711) | 0.977 | -0.924 | -0.44
CTSZ (UniProt Q9UBR2) | 0.529 | -1.02 | -0.748
CTTN (UniProt Q14247) | 0.2 | 0.536 | 0.451
CTTNBP2NL (UniProt Q9P2B4) | 1.26 | 1.4 | 1.54
CTU1 (UniProt Q7Z7A3) | -0.16 | -0.119 | -0.0524
CTU2 (UniProt Q2VPK5) | -0.165 | 0.157 | 0.225
CUEDC2 (UniProt Q9H467) | 0.0094 | -0.0601 | -0.131
CUL1 (UniProt Q13616) | -0.108 | 0.708 | 0.275
CUL2 (UniProt Q13617) | -0.256 | 0.23 | 0.0777
CUL3 (UniProt Q13618) | 0.158 | -0.1 | -0.422
CUL4A (UniProt Q13619) | -0.0896 | 0.0347 | -0.214
CUL4B (UniProt Q13620) | -0.051 | 0.0797 | -0.0817

Target | thermal stability z-score (potassium arsenate) | thermal stability z-score (lipoamide; [1]) | thermal stability z-score (lipoamide; arsenate co-treatment: none)
CUL5 (UniProt Q93034) | 0.131 | 0.631 | 0.636
CUL7 (UniProt Q14999) | -0.113 | 0.0636 | 0.0136
CUTA (UniProt O60888) | -0.0462 | 1.1 | 0.709
CUTC (UniProt Q9NTM9) | -0.934 | 0.342 | 0.211
CUX1 | 0.272 | 0.393 | 0.589
CWC15 (UniProt Q9P013) | -0.193 | 1.65 | 0.526
CWC22 (UniProt Q9HCG8) | -0.263 | -0.0873 | 0.0387
CWC27 (UniProt Q6UX04) | -0.344 | 0.0242 | -0.348
CWF19L1 (UniProt Q69YN2) | -0.198 | -0.381 | -0.106
CWF19L2 (UniProt Q2TBE0) | -0.098 | 0.0402 | -0.0633
CXADR (UniProt P78310) | 0.0224 | 0.11 | 0.273
CXORF38 (UniProt Q8TB03) | -1.87 | 0.486 | 0.307
CXORF56 (UniProt Q9H5V9) | -3.91 | 0.162 | -0.0486
CXXC1 (UniProt Q9P0U4) | 0.00172 | -0.00204 | 0.187
CYB5B (UniProt O43169) | 0.322 | 1.05 | 0.411
CYB5R1 (UniProt Q9UHQ9) | -2.32 | 1.47 | 0.244
CYB5R3 (UniProt P00387) | -0.832 | 1.07 | -0.079
CYB5R4 (UniProt Q7L1T6) | -0.243 | 0.477 | 0.1
CYB561A3 (UniProt Q8NBI2) | -0.949 | -0.299 | -0.521
CYBA (UniProt P13498) | 0.653 | 0.0672 | 0.232
CYC1 (UniProt P08574) | -1.31 | 0.0943 | -0.0471
CYCS (UniProt P99999) | -0.152 | 0.873 | 0.819
CYFIP1 (UniProt Q7L576) | -1.67 | -0.422 | -0.325
CYFIP2 (UniProt Q96F07) | 0.312 | 0.325 | 0.825
CYLD (UniProt Q9NQC7) | 0.144 | -0.238 | 0.0192
CYP1B1 (UniProt Q16678) | -0.0983 | 0.0413 | 0.0132
CYP2S1 (UniProt Q96SQ9) | -0.647 | -1.14 | -0.765
